Source: US20180207164A1, “COMBINATION THERAPIES FOR TREATING CANCERS” (GILEAD SCIENCES, INC., priority 2015, published 2018)
Values belong to the compound of their own block, whether it stands above or below them.

What was measured:
[1] = system: primary CLL cells + HS-5 co-culture; test: Apoptosis induction in primary CLL cells with αIgM/αIgG/αCD40 stimulation in HS-5 stromal cell co-culture; format: cell-based, human; settings: for Maximal % Apoptosis: +HS-5, 1 μM compound, 66-72 hr post-compound addition, duplicate wells
Description: (§1) The HS-5 human stromal cell line was obtained from ATCC (American Tissue Type Collection). Cells were maintained in lymphocyte growth medium (LGM): RPMI-1640 supplemented with 10% FBS, 1% penicillin-streptomycin, 10 mM HEPES, 1 mM sodium pyruvate, 55 μM β-mercaptoethanol, and 2 mM GlutaMax. With informed consent, whole blood was obtained from CLL subjects.
(§2) Peripheral blood mononuclear cells (PBMCs) were prepared from human whole blood obtained from CLL patients by Ficoll-separation in CPT tubes according to manufacturer's directions (Becton Dickinson). Isolated PBMCs were cryopreserved in freezing medium (50% IMDM, 40% FBS, and 10% DMSO) and held in the gas phase of liquid nitrogen until use. One day prior to plating of primary CLL cells, wells of a U-bottom 96-well plate were coated with 3.0×10^4 HS-5 cells and allowed to adhere overnight in a humidified 37° C. incubator supplemented with 5% CO2. The % CD5+/CD19^+ cells isolated were quantified via FACS staining.
One day prior to plating of primary CLL cells, wells of a U-bottom 96-well plate were coated with 3.0×10^4 HS-5 cells and allowed to adhere overnight in a humidified 37° C. incubator supplemented with 5% CO2.
(§3) Frozen primary CLL PBMCs were thawed, washed once in LGM, and rested for 3-5 hours in LGM at 37° C. prior to plating. Cells were then centrifuged at room temperature for 10 minutes and resuspended at 1.0-2.5×10^5 cells/mL in LGM for plating. Assay wells were set up in U-bottom 96-well tissue culture plates in the absence or presence of HS-5 co-culture. Compounds were diluted as described below. Assay plates were incubated for 1 hour prior to stimulation with αIgM/αIgG (7.8 μg/well) and αCD40 (4 μg/well). Positive and negative controls were set up. Cells were incubated for 66-72 hours in a 37° C. CO2 incubator and assayed for apoptosis.
(§4) Compounds were diluted from 10 mM DMSO stock solutions. Compound combinations were prepared by transferring 2 μl each of the appropriate working compound solutions or vehicle to wells of a 96-well polypropylene plate. A daughter plate was made by 100× dilution into media. The final assay plate was made by 10× dilution into the final assay plate described above. The final DMSO concentration was 0.1%.
(§5) Cells were transferred to a deep well (2 mL) assay block and rinsed with 1 mL cation free PBS (PBS^−/−). Cells were resuspended in Invitrogen's aqua Live/Dead reagent according to manufacturer's instructions and incubated 30 minutes on ice. Aqua Live/Dead was quenched with an equal volume of PBS^+/+ and 4% FBS (FACS buffer). Cells were centrifuged and labeled with αCD5-PE, αCD19-BV421 and AnnexinV-APC in a total volume of 80 μL and incubated 30 minutes on ice. After labeling, cells were rinsed twice in FACS buffer and then fixed with BD Fixation buffer for 30 minutes on ice. Cells were rinsed twice with FACS buffer and analyzed.
(§6) The percentage of CD5^+/CD19^+ cells was quantified in the PBMCs to provide an assessment of the malignant cell population in each sample. To evaluate apoptosis, flow cytometric sampling of 50 μL cell suspensions (5,000-25,000 total events) were collected on a BD FACS Canto II instrument using a high throughput screen (HTS) autosampler. The CD5^+CD19^+ population was gated, and data were collected for the Annexin V^−/Live-Dead^−, AnnexinV^+/Live-Dead^−, AnnexinV^+/Live-Dead^+, and Annexin V^−/Live-Dead^+ CLL populations.
(§7) Annexin V^+/Live-Dead^− or Annexin V^−/Live-Dead^+ cells were gated and percentages of positive cells in each population were recorded for each well and data were extracted to a flow cytometry standard (fcs) file. Average percentages of Annexin V^+/Live-Dead^− and Annexin V^−/Live-Dead^+ were determined.
(§8) EC50 values were calculated based on log concentration of drug and percent Annexin V^+/Live-Dead^− and Annexin V^−/Live-Dead^+ cells using a 4 parameter nonlinear regression algorithm in Prism 6.01 of the GraphPad software (San Diego, Calif. USA, www.graphpad.com). […]

[2] = system: primary chronic lymphocytic leukemia (CLL) cells; test: Apoptosis induction in primary CLL cells with αIgM/αIgG/αCD40 stimulation, without HS-5 co-culture (Annexin V/Live-Dead flow cytometry); format: cell-based, human; settings: for Maximal % Apoptosis: HS-5 (no co-culture), 66-72 hr post-compound addition, duplicate wells; for apoptosis observed in all CLL samples tested: at 30 nM; for average maximal proportion of apoptotic cells: primary αIgM/αIgG/αCD40 stimulated CLL cells
Description: as §1, §2, §3, §4, §5, §6, §7
as §8, with “www.graphpad.com). Each run generated a single EC50 based on duplicate well values at each compound dilution. EC50 values and Hill slopes generated from each curve fit were reported.” for “www.graphpad.com).”

CLL = settings: human, in vivo; cited from earlier work

EC50 ([2]; Homo sapiens, CLL cell, primary CLL cells stimulated with αIgM/αIgG/αCD40, N=4, 66-72 h, read-out: geometric mean EC50 (±standard deviation) for induction of apoptosis): 27.2 ± 11.3 nM
Compound: CC#CC(=O)N1CC[C@@H](n2c(=O)n(-c3ccc(Oc4ccccc4)cc3)c3c(N)ncnc32)C1 [Compound A1, 6-amino-9-[(3R)-1-(2-butynoyl)-3-pyrrolidinyl]-7-(4-phenoxyphenyl)-7,9-dihydro-8H-purin-8-one]
Maximal % Apoptosis ([1]; Donor 3): 10.1%
Maximal % Apoptosis ([1]; Donor 4): 45.5%
apoptosis levels versus background in the presence of HS-5 co-culture ([1]; HS-5 co-culture, 5 donors tested, mean EC50 not reported): generally not increased above background in 3/5 donors tested
average maximal apoptosis ([2]; 1 μM compound, αIgM/αIgG/αCD40 stimulated, 5 donors): 21.1%
Maximal % Apoptosis ([2]; Donor 3, 1 μM compound): 30.0%
Maximal % Apoptosis ([2]; Donor 4, 1 μM compound): 67.3%
Maximal % Apoptosis ([2]; Donor 5, 1 μM compound): 10.4%
Maximal % Apoptosis ([2]; Donor 6, 1 μM compound): 14.1%
Maximal % Apoptosis ([2]; Donor 10, 1 μM compound): 20.0%

Compound: CC1(C)CCC(CN2CCN(c3ccc(C(=O)NS(=O)(=O)c4ccc(NCC5CCOCC5)c([N+](=O)[O-])c4)c(Oc4cnc5[nH]ccc5c4)c3)CC2)=C(c2ccc(Cl)cc2)C1 [Compound B1, 4-[4-[[2-(4-chlorophenyl)-4,4-dimethyl-1-cyclohexen-1-yl]methyl]-1-piperazinyl]-N-[[3-nitro-4-[[(tetrahydro-2H-pyran-4-yl)methyl]amino]phenyl]sulfonyl]-2-(1H-pyrrolo[2,3-b]pyridin-5-yloxy)-benzamide]
clinical efficacy in CLL (CLL): clinical efficacy in CLL
Maximal % Apoptosis ([1]; Donor 3): 30.8%
Maximal % Apoptosis ([1]; Donor 4): 80.8%
Maximal % Apoptosis ([2]; Donor 3, 1 μM compound): 66.1%
Maximal % Apoptosis ([2]; Donor 4, 1 μM compound): 87.3%
Maximal % Apoptosis ([2]; Donor 5, 1 μM compound): 38.3%
Maximal % Apoptosis ([2]; Donor 6, 1 μM compound): 31.6%
Maximal % Apoptosis ([2]; Donor 10, 1 μM compound): 35.8%
apoptosis observed in all CLL samples tested [2]: > 60%
average maximal proportion of apoptotic cells [2]: 91.4%

Compound: CCC(Nc1ncnc2[nH]cnc12)c1nc2cccc(F)c2c(=O)n1-c1ccccc1 (stereo not shown) [Compound C1, 2-(1-((9H-Purin-6-yl)amino)propyl)-5-fluoro-3-phenylquinazolin-4(3H)-one]
Maximal % Apoptosis ([1]; Donor 3): 15.2%
Maximal % Apoptosis ([1]; Donor 4): 30.6%
Maximal % Apoptosis ([2]; Donor 3, 1 μM compound): 50.8%
Maximal % Apoptosis ([2]; Donor 4, 1 μM compound): 60.1%
Maximal % Apoptosis ([2]; Donor 5, 1 μM compound): 12.1%
Maximal % Apoptosis ([2]; Donor 6, 1 μM compound): 15.0%
Maximal % Apoptosis ([2]; Donor 10, 1 μM compound): 17.6%
dose-responsive effect in inducing apoptosis ([2]; primary CLL cells, single agent): dose-responsive effect
average maximal proportion of apoptotic cells [2]: 23%

Compound: c1cn2cc(-c3ccc4cn[nH]c4c3)nc(Nc3ccc(N4CCOCC4)cc3)c2n1 [Compound D1, 6-(1H-indazol-6-yl)-N-(4-morpholinophenyl)imidazo[1,2-a]pyrazin-8-amine]
clinical efficacy in CLL (CLL): clinical efficacy in CLL
apoptosis observed in all CLL samples tested [2]: > 60%
